Test results published in patent publication US20140162974A1, “METHODS FOR MODULATION OF PHOSPHORUS AND FGF23” (Luitpold Pharmaceuticals, Inc., priority 2012, published 2014).

Assays:
[1] = test system: hemoglobin, ferritin, TSAT; experiment: VIT-30 efficacy: hemoglobin and iron indices; assay type: in vivo, human
Procedure: (§1) Study visits were on Days 0, 3, 7, 10, 14, 28, 56, and 120. A phone assessment occurred on Day 90.
The Venofer Group received 5 doses of Venofer, 200 mg for a total dose of 1,000 mg.
For Venofer, subjects received, as an IV push injection over 2 to 5 minutes, 200 mg on Days 0, 7, and 14 with 2 additional doses given: 1 between Days 0 and 7 and the other between Days 7 and 14 (i.e., for a total of 5 doses [1,000 mg]).
For efficacy, the primary efficacy measure was the mean change from baseline to the highest observed hemoglobin any time between baseline and end of treatment period (Day 56) or time of intervention. Supportive efficacy measures included the following: (a) proportion of subjects achieving an increase in hemoglobin of ≧1 g/dL any time between baseline and end of treatment period (Day 56) or time of intervention; (b) mean change from baseline to the highest observed ferritin any time between baseline and treatment period (Day 56) or time of intervention; (c) mean change from baseline to the highest observed TSAT any time between baseline and treatment period (Day 56) or time of intervention; and (d) mean change from baseline to the pre-dosing value on Day 7 for hemoglobin, ferritin, and TSAT.
The hemoglobin baseline was defined as the average of the last 2 hemoglobin values from the central laboratory prior to the first dose of study drug. If only 1 centrally-measured hemoglobin value was available prior to the first dose of study drug, the single value was used for baseline. Non-inferiority was concluded if the lower limit of the 2-sided CI was ≧−0.075. This non-inferiority margin preserved >50% of the difference from oral iron observed previously.
The mean change from baseline to highest TSAT and ferritin was assessed for treatment group differences with the 95% 2-sided CI (based on normal distribution, assuming equal variances). Mean change from baseline to each scheduled visit was similarly assessed for hemoglobin, TSAT, ferritin, serum iron, total iron binding capacity, and unsaturated iron binding capacity. Baseline was calculated as described above. Assessments were assigned to scheduled visits as follows (if the assessment was on a dosing day for IV iron, the assessment before dosing was selected): • Day 7: Assessments on Days 4 through 10. • Day 14: Assessments on Days 11 through 21. • Day 28: Assessments on Days 22 through 35. • Day 56: Assessments on Days 50 through 63.

FGF-23 = experiment: VIT-30: FGF-23; assay type: in vivo, human
Text: (§2) FIG. 1 is a line and scatter plot showing mean changes in phosphate (left vertical axis) or changes in FGF-23 (right vertical axis) with respect to baseline value at each study day (0, 7, 14, 28, or 56) as indicated on the Horizontal (X) axis for trial VIT30. […] Further details regarding methodology are provided in Example 2.
as §1
For quantitative baseline characteristics, the association with FGF-23 at Screening was evaluated with Pearson product moment and Spearman correlations. For qualitative baseline characteristics, the association with FGF-23 at Screening was evaluated with mean differences in FGF-23 among categories of the baseline characteristic.
Descriptive statistics for FGF-23 at Screening (mean, median, standard deviation, quartiles, minimum, and maximum) were summarized for subgroups.

serum phosphate = experiment: VIT-30: serum phosphate; assay type: in vivo, human
Text: as §2, §1
Clinical laboratory variables were presented in 2 ways. First, change from baseline to Day 7, Day 14, Day 28, and Day 56 were summarized. Baseline was defined as the last value obtained prior to the first injection of study drug. Second, the number and proportion of subjects with treatment-emergent PCS laboratory values were tabulated. Treatment-emergent PCS values were those in which the baseline value was normal and post-baseline value was abnormal (i.e., met Grade 3 or Grade 4 toxicity criteria from the National Cancer Institute Common Toxicity Criteria for Adverse Events, Version 3.0 [NCI CTCAE]).
For serum phosphate and platelet count, change from baseline to the smallest value after baseline and final value were also summarized. For subjects whose baseline value was above the lower reference range and who had at least 1 value below the lower reference range after baseline, the following were summarized: the number of days from baseline to the first value below the lower reference range and the number of days from the first value below the lower reference range until the first succeeding value within the reference range.

[2] = 13-week cumulative dose pre-clinical studies; assay type: in vivo, dogs and rats; conditions: over 13 weeks; clinical signs of iron accumulation in liver, spleen, kidneys
[3] = Intra-arterial, perivenous, or intravenous tolerance studies; assay type: in vivo, rabbit; conditions: intra-arterial
[4] = In vitro and in vivo mutagenicity tests
dextran antibodies = experiment: Dextran antigenicity test
Text: FCM can mimic physiologically occurring ferritin. FCM is metabolized by the glycolytic pathway.

[5] = in vivo, cited from earlier work
[6] = Days 7, 14, 28, 56, trial VIT30

polynuclear iron (III)-hydroxide 4(R)-(poly-(1→4)-O-α-glucopyranosyl)-oxy-2(R),3(S),5(R),6-tetrahydroxy-hexanoate [FCM]
proportion of subjects with an increase in hemoglobin ≧1.0 g/dL, FCM compared with Venofer ([1]; anytime between baseline and Day 56 or time of intervention): statistically significantly greater
mean increases in ferritin, TSAT, serum iron and mean decreases in TIBC and unsaturated IBC, FCM compared with Venofer ([1]; baseline to highest value between baseline and Day 56 or time of intervention): statistically significantly greater
mean increase in hemoglobin from baseline to highest value, FCM compared with Venofer ([1]; between baseline and Day 56 or time of intervention): statistically significantly greater
noninferiority test on mean increase in hemoglobin, FCM to Venofer ([1]; lower limit of 2-sided 95% CI ≧−0.2): noninferiority
noninferiority test on proportion with hemoglobin increase ≧1.0 g/dL, FCM to Venofer ([1]; overall population, 2-sided 95% CI): noninferiority
changes in FGF-23 with respect to baseline (FIG. 1) (FGF-23; [6]): almost always decreases with respect to baseline (except for FCM on Day 14)
FGF 23 change from baseline to Day 56 within group (FGF-23; in vivo): statistically significant decrease
mean changes in phosphate with respect to baseline (FIG. 1) (serum phosphate; [6]): decreased with respect to baseline values
incidence of serum phosphate<2.0 mg/dL (serum phosphate; chronic kidney disease trial of 2500 patients, 120 days of follow-up (see Example 2)): 18.5%
proportion of subjects with PCS low phosphorus (serum phosphate; treatment-emergent potentially clinically significant value): 18.5%
cumulative dose with no observed adverse effect level [2]: up to 117 mg iron/kg body weight
treatment-related local tissue irritation [3]: No treatment-related local tissue irritation was observed
clastogenicity, mutagenicity, chromosomal damage or bone marrow cell toxicity [4]: no evidence
specific responses in a dextran antigenicity test (dextran antibodies): no specific responses
tissue distribution after intravenous administration ([5]; iv): mainly found in the liver, spleen, and bone marrow
projected calculated terminal half-life (t1/2) [5]: approximately 16 hours
